# Laboratory results from US20190241535A1, “3-SUBSTITUTED CARBONYL-NAPHTHO[2,3-B]FURANE DERIVATIVE OR PHARMACEUTICALLY ACCEPTABLE SALT THEREOF” (Boston Biomedical, Inc., priority 2014, published 2019).
# Structures can show the parent of a compound that is named as a salt. Where two headings read alike, the source gives them in different places.
# Columns and labels:
# FaDu cell [1] = assay: Test 2: inhibition of forming cancer cell sphere (Sphere IC50); type: cell-based; conditions: Homo sapiens, 96 h, ultra-low attachment plate, serum-free sphere medium, 4 days, CellTiter-Glo
# Experimental: (§1) HCT-116 cell, HT-29 cell, and FaDu cell were obtained from the American Type Culture Collection (ATCC). HCT-116 cell and HT-29 cell were cultivated at 37° C. in the presence of 5% CO2 using McCoy's 5a medium containing 10% fetal bovine serum (FBS), and 1% penicillin/streptomycin; and FaDu cell was cultivated at 37° C. in the presence of 5% CO2 using MEM containing 10% FBS, 1% non-essential amino acid, 1% sodium pyruvate, and 1% penicillin/streptomycin. Each of HCT-116 cell, HT-29 cell, and FaDu cell was seeded on 384 Wells Black Clear Bottom Ultra-Low Attachment Microplate (Corning Cat. No. 3827) in 350-800 cells/well, with DMEM/F12 medium containing 2% B27 supplement (GIBCO), 20 ng/mL epidermal growth factor (EGF) (peprotech), 10 ng/mL basic fibroblast growth factor (bFGF) (peprotech), 5 μg/mL insulin (Sigma), and 1% penicillin/streptomycin. Each test sample was added thereto to adjust the final concentration thereof in DMSO to 0.1% and the test wells were incubated for 4 days. And then, the viable cell count of each sample was measured using CellTiter-Glo® Luminescent Cell Viability Assay (Promega), and the concentration to inhibit the cell growth in each test sample by 50% was calculated (Sphere IC50 Value;μM).
# HCT-116 cell [2] = assay: as above; type: cell-based; conditions: Homo sapiens, 96 h, ultra-low attachment plate, serum-free sphere medium, 4 days, CellTiter-Glo
# Experimental: as §1
# HT-29 cell [3] = assay: as above; type: cell-based; conditions: Homo sapiens, 96 h, ultra-low attachment plate, serum-free sphere medium, 4 days, CellTiter-Glo
# Experimental: as §1
# FaDu cell [4] = assay: Test 1: growth inhibition in cancer cell (Bulk IC50); type: cell-based; conditions: Homo sapiens, 96 h, adherent culture, incubated 4 days, CellTiter-Glo
# Experimental: (§2) HCT-116 cell, HT-29 cell, and FaDu cell were obtained from the American Type Culture Collection (ATCC). HCT-116 cell and HT-29 cell were cultivated at 37° C. in the presence of 5% CO2 using McCoy's 5a medium containing 10% fetal bovine serum (FBS), and 1% penicillin/streptomycin; and FaDu cell was cultivated at 37° C. in the presence of 5% CO2 using MEM containing 10% FBS, 1% non-essential amino acid, 1% sodium pyruvate, and 1% penicillin/streptomycin. Each cell was seeded on μClear-plate black 384 wells (Greiner bio-one Cat. No. 781091) in 300-600 cells/well, and then each test sample was added thereto to adjust the final concentration thereof in DMSO to 0.1% and the test wells were incubated for 4 days. And then, the viable cell count of each sample was measured using CellTiter-Glo® Luminescent Cell Viability Assay (Promega), and the concentration to inhibit the cell growth in each test sample by 50% was calculated (Bulk IC50 Value; μM).
# HCT-116 cell [5] = assay: as above; type: cell-based; conditions: Homo sapiens, 96 h, adherent culture, incubated 4 days, CellTiter-Glo
# Experimental: as §2
# HT-29 cell [6] = assay: as above; type: cell-based; conditions: Homo sapiens, 96 h, adherent culture, incubated 4 days, CellTiter-Glo
# Experimental: as §2
# Test 3: solubility test = type: physicochemical; conditions: kinetic from dmso stock, 1% DMSO, HPLC
# Experimental: Each 15 μL of each test sample (10 mM DMSO solution) was dispensed into 4 Utubes on a 96 well rack. Then, each sample was evaporated to dryness with a rotary evaporator. 3 μL of DMSO was added to each dried sample to be re-dissolved. And, 300 μL of pH 7.4 buffer was added to the 2 wells and 300 μL of pH 1.2 buffer was added to the other 2 wells. After shaking each sample solution, the samples were still stood. Then, each sample solution was centrifuged to remove insoluble matter, and 100 μL of the supernatant was picked up on a 96 well plate. Separately, 2 μL of each test sample (10 mM DMSO solution) was dispensed on a 96 well plate, and diluted with 198 μL of 50% acetonitrile to prepare each 100 μM standard solution. Further, the 100 μM standard solution was diluted with 50% acetonitrile to prepare each 10 μM standard solution. The above test samples for the solubility test and the two kinds of the standard samples were analyzed with a HPLC. The solubility of each test sample was calculated as an area ratio per the standard solutions.
# [7] = aqueous buffer, pH 7.4 buffer, read-out: Solubility pH 7.4
# [8] = simulated gastric fluid, pH 1.2 buffer, read-out: Solubility pH 1.2
Compound,IC50 (FaDu cell [1]),IC50 (HCT-116 cell [2]),IC50 (HT-29 cell [3]),IC50 (FaDu cell [4]),IC50 (HCT-116 cell [5]),IC50 (HT-29 cell [6]),solubility (Test 3: solubility test; [7]),solubility (Test 3: solubility test; [8])
"COC(=O)c1c(C(C)(OC)OC)oc2c1C(=O)c1ccccc1C2=O [Example 1, Methyl 2-(1,1-dimethoxyethyl)-4,9-dioxo-4,9-dihydronaphtho[2,3-b]furan-3-carboxylate]",2.15 µM,1.73 µM,2.18 µM,0.38 µM,0.44 µM,2.25 µM,–,–
"COC(=O)c1c(C(F)(F)F)oc2c1C(=O)c1ccccc1C2=O [Example 6, Methyl 4,9-dioxo-2-(trifluoromethyl)-4,9-dihydronaphtho[2,3-b]furan-3-carboxylate]",3.63 µM,2.83 µM,3.05 µM,2.61 µM,2.35 µM,2.84 µM,–,–
"CN(C)C(=O)c1c(-c2ccc(F)cc2)oc2c1C(=O)c1ccccc1C2=O [Example 11, 2-(4-Fluorophenyl)-N,N-dimethyl-4,9-dioxo-4,9-dihydronaphtho[2,3-b]furan-3-carboxamide]",4.46 µM,5.43 µM,5.84 µM,4.47 µM,5.31 µM,5.76 µM,< 0.1 µg/mL,< 0.1 µg/mL
"CC(=O)c1oc2c(c1C(=O)N1CCOCC1)C(=O)c1ccccc1C2=O [Example 14, 2-Acetyl-3-(morpholine-4-carbonyl)naphtho[2,3-b]furan-4,9-dione]",0.54 µM,1.8 µM,0.71 µM,0.75 µM,0.74 µM,3.58 µM,121 µg/mL,131 µg/mL
"CC(=O)c1oc2c(c1C(=O)N1CCN(C)CC1)C(=O)c1ccccc1C2=O [Example 5, 2-Acetyl-3-(4-methylpiperazine-1-carbonyl)naphtho[2,3-b]furan-4,9-dione hydrochloride]",0.66 µM,3.1 µM,0.6 µM,0.54 µM,0.62 µM,0.57 µM,127 µg/mL,152 µg/mL
"COC(=O)c1c(-c2cccnc2)oc2c1C(=O)c1ccccc1C2=O [Example 12, Methyl 4,9-dioxo-2-(pyridin-3-yl)-4,9-dihydronaphtho[2,3-b]furan-3-carboxylate]",5.79 µM,> 10 µM,> 10 µM,2.34 µM,6.96 µM,> 10 µM,–,–
"CC(=O)c1oc2c(c1C(=O)N(C)C)C(=O)c1ccccc1C2=O [Example 4, 2-Acetyl-N,N-dimethyl-4,9-dioxo-4,9-dihydronaphtho[2,3-b]furan-3-carboxamide]",0.71 µM,3.36 µM,0.85 µM,0.56 µM,0.59 µM,0.71 µM,107 µg/mL,115 µg/mL
"CN(C)C(=O)c1c(C(F)(F)F)oc2c1C(=O)c1ccccc1C2=O [Example 21, N,N-dimethyl-4,9-dioxo-2-(trifluoromethyl)-4,9-dihydronaphtho[2,3-b]furan-3-carboxamide]",0.41 µM,0.32 µM,0.32 µM,0.3 µM,0.27 µM,0.3 µM,38 µg/mL,63 µg/mL
"COC(=O)c1c(C(C)=O)oc2c1C(=O)c1ccccc1C2=O [Example 2, Methyl 2-acetyl-4,9-dioxo-4,9-dihydronaphtho[2,3-b]furan-3-carboxylate]",0.59 µM,0.38 µM,0.4 µM,0.32 µM,0.28 µM,0.34 µM,0.5 µg/mL,0.8 µg/mL
